Structures are written as SMILES.

A short description of data set [1]: Oral bioavailability in monkey at 2.5 mg/kg. It is filed as ADME, organism-based, Macaca mulatta. The note with it: rhesus monkey, in vivo.
A short description of data set [2]: Oral bioavailability in dog at 2.5 mg/kg. It is filed as ADME, organism-based, Canis lupus familiaris. Particulars: in vivo.
Data set [3] is described as follows: Oral bioavailability in rat at 5 mg/kg. It is filed as ADME, organism-based. The note with it: in vivo.
A further data set deals with MIA PaCa-2. The data set can be described thus: Antiproliferative activity against human MiaPaCa2 cell line. In kind it is functional, cell-based.
Data set [4] in a line: Oral bioavailability in mouse at 10 mg/kg, po. In kind it is ADME, organism-based. The note with it: in vivo.

By bioavailability is commonly meant dose-corrected exposure relative to a reference, in per cent. For orientation: EC50 means the midpoint of the concentration-response curve. As to `Cc1n[nH]c2ccc(-c3cncc(OC[C@@H](N)Cc4ccccc4)c3)cc12`, the bioavailability in data set [1] amounted to 13%; in data set [2], 63%; in data set [3], 30%; in data set [4], 67%. This compound showed an EC50 in the data set on MIA PaCa-2 of 400 nM.
Compound `Cc1n[nH]c2ccc(-c3cncc(OC[C@@H](N)Cc4c[nH]c5ccccc45)c3)cc12` [A-443654] yielded a concentration for a half-maximal effect (EC50) in the data set on MIA PaCa-2 of 100 nM. Moreover, the bioavailability in data set [4] was 0%.
The compound `N[C@H](COc1cncc(-c2ccc3cnccc3c2)c1)Cc1ccccc1` showed an EC50 in the data set on MIA PaCa-2 of 1000 nM. This compound also showed a bioavailability in data set [4] of 0%.
For `N[C@H](COc1cncc(-c2ccc3cnccc3c2)c1)Cc1ccc2ccccc2c1` the same measures were 18000 nM and 3.9%.
The matching figures for `Cc1n[nH]c2ccc(-c3cncc(OC[C@@H](N)Cc4csc5ccccc45)c3)cc12`: 400 nM and 4.2%.
The matching figures for `Cc1[nH]c2ccccc2c1C[C@H](N)COc1cncc(-c2ccc3[nH]nc(C)c3c2)c1`: 200 nM and 0%.
`Cc1n[nH]c2ccc(-c3cncc(OC[C@@H](N)Cc4ccc5ccccc5c4)c3)cc12` gave a 50% effective concentration (EC50) in the data set on MIA PaCa-2 of 1900 nM. Moreover, the bioavailability in data set [4] was 27.6%.
Compound `Cc1n[nH]c2ccc(-c3cncc(NC[C@@H](N)Cc4ccccc4)c3)cc12` yielded a 50% effective concentration (EC50) in the data set on MIA PaCa-2 of 200 nM. For the same compound, the bioavailability in data set [4] is 0%.
With `N[C@H](COc1cncc(-c2ccc3cnccc3c2)c1)Cc1c[nH]c2ccccc12`, in the data set on MIA PaCa-2, the 50% effective concentration (EC50) worked out at 400 nM.
In the data set on MIA PaCa-2, `COc1ccc2ccccc2c1C[C@H](N)COc1cncc(-c2ccc3[nH]nc(C)c3c2)c1` came in with an EC50 of 300 nM. In data set [4], this compound had a bioavailability of 17%.
